Test results reported in US20090069301A1, “Acridine and Quinoline Derivatives as Sirtuin Modulators” (Sirtris Pharmaceuticals, Inc., priority 2005, published 2009).
pEC50: −log10 of the molar value.

Experiments:
SIRT1 = biological target: T1, SIRT1 (Homo sapiens, UniProt Q96EB6); experiment: Fluorescence polarization or mass spectrometry based assay to identify modulators of SIRT1 activity (p53-based peptide deacetylation); format: biochemical; conditions: activation of SIRT1, Table 4; read-out: ED50 (the source's name);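 also: recombinant His-tagged human SIRT1 deacetylating p53-derived acetylated peptide, detected by fluorescence polarization after trypsin cleavage, signal inversely tracking deacetylase activity, compared against activity without test compound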
T1 sequence (Q96EB6 1-747): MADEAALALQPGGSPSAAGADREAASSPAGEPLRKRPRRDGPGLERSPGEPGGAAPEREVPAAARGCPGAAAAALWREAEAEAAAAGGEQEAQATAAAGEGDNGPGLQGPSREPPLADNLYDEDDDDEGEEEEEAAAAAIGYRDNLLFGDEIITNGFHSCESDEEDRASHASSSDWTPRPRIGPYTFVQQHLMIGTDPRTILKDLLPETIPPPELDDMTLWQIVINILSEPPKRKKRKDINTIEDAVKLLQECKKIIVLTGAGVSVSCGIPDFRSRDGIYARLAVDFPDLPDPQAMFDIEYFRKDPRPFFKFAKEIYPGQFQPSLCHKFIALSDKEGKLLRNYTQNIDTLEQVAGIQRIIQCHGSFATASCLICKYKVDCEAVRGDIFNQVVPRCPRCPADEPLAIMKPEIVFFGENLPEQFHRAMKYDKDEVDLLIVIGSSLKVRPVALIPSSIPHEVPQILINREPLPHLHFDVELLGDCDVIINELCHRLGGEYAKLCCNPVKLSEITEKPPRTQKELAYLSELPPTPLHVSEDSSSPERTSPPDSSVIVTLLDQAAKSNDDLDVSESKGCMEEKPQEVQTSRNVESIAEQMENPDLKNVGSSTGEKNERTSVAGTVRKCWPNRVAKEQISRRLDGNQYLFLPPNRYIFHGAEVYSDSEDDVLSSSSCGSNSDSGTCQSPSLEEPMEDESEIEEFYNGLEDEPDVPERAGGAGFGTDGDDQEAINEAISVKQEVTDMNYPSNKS

human SIRT3 = biological target: T2, human SIRT3 (Homo sapiens, UniProt Q9NTG7); experiment: Fluorescence polarization assay to identify modulators of SIRT3 activity (Histone H4-based peptide deacetylation); format: biochemical; conditions: activation of SIRT3, Table 6; read-out: ED50 (the source's name)
T2 construct: corresponded to amino acid residues 102-399 of human SIRT3 with an N-terminal His-tag; His-tag (N); made in house; host or cells: E. coli
T2 sequence (Q9NTG7 102-399): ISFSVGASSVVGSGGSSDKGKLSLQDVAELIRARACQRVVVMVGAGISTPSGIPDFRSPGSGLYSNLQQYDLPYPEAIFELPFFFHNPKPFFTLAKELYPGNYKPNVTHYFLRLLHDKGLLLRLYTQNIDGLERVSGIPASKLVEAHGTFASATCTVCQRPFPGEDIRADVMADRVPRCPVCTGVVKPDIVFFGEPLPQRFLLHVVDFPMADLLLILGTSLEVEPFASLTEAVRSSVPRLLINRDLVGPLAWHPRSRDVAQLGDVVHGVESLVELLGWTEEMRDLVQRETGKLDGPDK
Description: A fluorescence polarization assay was used to identify modulators of SIRT3 activity. The same assay may be used to identify modulators of any sirtuin protein. The assay utilizes a peptide substrate based on a fragment of Histone H4, a known sirtuin deacetylation target. The substrate contains a peptide having 14 amino acid residues as follows: Biotin-GASSHSK(Ac)VLK(MR121) (SEQ ID NO: 3) wherein K(Ac) is an acetylated lysine residue. The peptide is labeled with the fluorophore MR121 (excitation 635 nm/emission 680 nm) at the C-terminus and biotin at the N-terminus.
The peptide substrate is exposed to a sirtuin protein in the presence of NAD^+ to allow deacetylation of the substrate and render it sensitive to cleavage by trypsin. […] The fluorescence polarization signal observed for the full length peptide substrate bound to streptavidin is higher than the fluorescence polarization signal observed for the released MR121 C-terminal fragment. Therefore, the fluorescence polarization obtained is inversely proportional to the level of deacetylation (e.g., the signal is inversely proportional to the activity of the sirtuin protein). Results are read on a microplate fluorescence polarization reader (Molecular Devices Spectramax MD) with appropriate excitation and emission filters. […]

- pEC50 (SIRT1): > 4.30
- pEC50 (human SIRT3): > 4.30
SMILES: O=C(Nc1ccccc1N1CCOCC1)c1cc(-c2ccco2)nc2ccccc12 [Compound 8]
